# Reference: PMC8201735 (BMC Pharmacology & Toxicology, 2021)
# Values joined by “and” are separate entries in the source; they are usually repeats but may differ in a detail not shown here. Equal values may be shown once. Read-outs that look alike come from different tables or passages of the source.
# Columns and labels:
# subjects with T2DM [1] = experiment: Oral glucose tolerance test (75 g): weighted mean plasma glucose and insulin; assay type: in vivo, human; conditions: for Weighted mean plasma glucose following OGTT, Mean (SD) / Weighted mean plasma insulin following OGTT, Mean (SD): Day 13
# Procedure: Oral glucose tolerance testing was performed on Day 1 and Day 13 using a 75 g oral glucose solution. Blood samples for the measurement of insulin and glucose were taken immediately before drug dosing (within 5 min of drug dosing), and at 30 min, 1, 1.5, 2, 3, 4, and 6 h following drug dosing.
# [2] = Plasma pharmacokinetics of remogliflozin etabonate and its metabolites during metformin treatment; assay type: in vivo, human; conditions: for AUC(0-t) / Cmax / Tmax: human, plasma, oral; for AUC(0-t): read-out: AUC (0-last), geometric mean (%CVb); for Cmax: read-out: Cmax, geometric mean (%CVb); for Tmax: read-out: tmax, median (range)
# Procedure: PK analysis was conducted by […] (Chapel Hill, NC, USA), under the direction of Clinical Pharmacokinetics/Modelling and Simulation, GSK using the non-compartmental analysis Model 200 (for extra vascular administration) of WinNonlin Professional Edition version 4.1 (Pharsight Corporation, Mountain View, CA). […] Descriptive statistics were used to summarize baseline demographics, safety data, and pharmacokinetic parameters. Geometric mean and % CVb (between-subject coefficient of variation) were calculated for all pharmacokinetic parameters except tmax. Comparisons of placebo with each active dose of RE were assessed in terms of change from baseline in fasting plasma lactate acid using repeated measures analysis of covariance model. The model included terms for baseline measurement, visit, treatment and visit-by-treatment interaction. The same model was applied to change from baseline in weighted means of day-time, night-time and 0-24 h of blood pressures. Within group treatment comparison was performed using mixed model on log transformed Cmax and AUC (0-last).
# [3] = design: method as in PMID 25934577; conditions: repeat dosing PK; cited from earlier work
# subjects with T2DM [4] = experiment: Adverse event monitoring, RE co-administered with metformin for 13 days; assay type: in vivo, human; conditions: for Any AE / Tolerability of co-administration with metformin: 13 days; for Tolerability of co-administration with metformin: RE 500 or 750 mg BID + metformin >=2000 mg/day
# From the text: The study was comprised of three phases; run-in, randomization, and treatment. […] In treatment phase the patients were considered in two cohorts. […] The adverse events monitoring included recording of any adverse event (AE) and serious adverse event (SAE) reported or observed during the entire study and follow-up period. All the subjects were counseled to inform study staff of any AEs that occurred during the study. Any abnormal laboratory findings (e.g., clinical chemistry, hematology, and urinalysis) or other abnormal assessments (e.g., ECGs, vital signs, physical examination) that were judged by the investigator as clinically significant were recorded as AEs or SAE.
# [5] = 500 mg, Day 1, after RE 500 mg BID + metformin, N = 16
# [6] = 500 mg, Day 13, after RE 500 mg BID + metformin, N = 15
# [7] = 750 mg, Day 1, after RE 750 mg BID + metformin, N = 17
# [8] = 750 mg, Day 13, after RE 750 mg BID + metformin, N = 16
# [9] = RE 500 mg BID + metformin, N = 16
# [10] = RE 750 mg BID + metformin, N = 17
smiles,measurement,setting,value
"CCOC(=O)OC[C@H]1O[C@@H](Oc2nn(C(C)C)c(C)c2Cc2ccc(OC(C)C)cc2)[C@H](O)[C@@H](O)[C@@H]1O [RE, remogliflozin etabonate]","Weighted mean plasma glucose following OGTT, Mean (SD)",subjects with T2DM [1]; RE 500 mg + Metformin,9 mmol/L and 9.45 (1.502) mmol/L
same,"Weighted mean plasma insulin following OGTT, Mean (SD)",subjects with T2DM [1]; RE 500 mg + Metformin,142.15 (67.626) pmol/L
same,"Weighted mean plasma glucose following OGTT, Mean (SD)",subjects with T2DM [1]; RE 750 mg + Metformin,8 mmol/L and 8.84 (1.656) mmol/L
same,"Weighted mean plasma insulin following OGTT, Mean (SD)",subjects with T2DM [1]; RE 750 mg + Metformin,171.57 (74.178) pmol/L
same,"Weighted mean plasma glucose, change from baseline, Mean (SD)",subjects with T2DM [1]; RE 500 mg + Metformin,−3.50 (2.012) mmol/L
same,"Weighted mean plasma insulin, change from baseline, Mean (SD)",subjects with T2DM [1]; RE 500 mg + Metformin,−44.80 (52.746) pmol/L
same,"Weighted mean plasma glucose, change from baseline, Mean (SD)",subjects with T2DM [1]; RE 750 mg + Metformin,−2.77 (2.262) mmol/L
same,"Weighted mean plasma insulin, change from baseline, Mean (SD)",subjects with T2DM [1]; RE 750 mg + Metformin,−18.95 (47.360) pmol/L
same,"AUC(0-last) accumulation ratio Day 13 versus Day 1, point estimate (90% CI)",[2]; RE 500 mg + Metformin,0.99 (0.857–1.15)
same,"AUC(0-last) accumulation ratio Day 13 versus Day 1, point estimate (90% CI)",[2]; RE 750 mg + Metformin,1.02 (0.861–1.21)
same,AUC(0-t),"[2]; 500 mg, Day 1, RE 500 mg BID + metformin, N = 16",70.9 ng·h/mL
same,Cmax,[2]; [5],64.8 ng/mL
same,Tmax,[2]; [5],37.8 min
same,AUC(0-t),"[2]; 500 mg, Day 13, RE 500 mg BID + metformin, N = 15",73.5 ng·h/mL
same,Cmax,[2]; [6],53.3 ng/mL
same,Tmax,[2]; [6],30 min
same,AUC(0-t),"[2]; 750 mg, Day 1, RE 750 mg BID + metformin, N = 17",121 ng·h/mL
same,Cmax,[2]; [7],137 ng/mL
same,Tmax,[2]; [7],30 min
same,AUC(0-t),"[2]; 750 mg, Day 13, RE 750 mg BID + metformin, N = 16",121 ng·h/mL
same,Cmax,[2]; [8],101 ng/mL
same,Tmax,[2]; [8],28.8 min
same,Increase in AUC on repeat dosing,[3],10%
same,Increase in t1/2 on repeat dosing,[3],10%
same,Any AE,"subjects with T2DM [4]; RE 500 mg BID + metformin >=2000 mg/day, N = 16",6 (38%) N(%)
same,Dizziness,subjects with T2DM [4]; [9],1 (6%) N(%)
same,Nausea,subjects with T2DM [4]; [9],1 (6%) N(%)
same,Thirst,subjects with T2DM [4]; [9],0 N(%)
same,Post-therapy AEs,subjects with T2DM [4]; RE 750 mg + metformin group,no post-therapy AEs
same,Subjects with hypoglycemic laboratory events,"subjects with T2DM [4]; RE 750 mg + metformin group, moderate, resolved with sweets",one
same,Any AE,"subjects with T2DM [4]; RE 750 mg BID + metformin >=2000 mg/day, N = 17",4 (24%) N(%)
same,Diarrhoea,subjects with T2DM [4]; [10],1 (6%) N(%)
same,Dizziness,subjects with T2DM [4]; [10],1 (6%) N(%)
same,Dyslipidemia,subjects with T2DM [4]; [10],0 N(%)
same,Nausea,subjects with T2DM [4]; [10],1 (6%) N(%)
same,Supraventricular tachycardia,subjects with T2DM [4]; [10],0 N(%)
same,Urinary tract infection,subjects with T2DM [4]; [10],0 N(%)
same,Vomiting,subjects with T2DM [4]; [10],1 (6%) N(%)
same,Tolerability of co-administration with metformin,subjects with T2DM [4],generally well tolerated
same,Tolerability of co-administration with metformin,subjects with T2DM [4]; listed as remogliflozin etabonate,well tolerated
